Reference: ChEMBL document CHEMBL3044846, “Synthesis and structureactivity relationships of serotonin derivatives effect on -glucosidase inhibition” (Med Chem Res, 2012)
Activity calls are given as the source filed them. The calls are words filed in the database; no cut-off is given here.

Columns and labels:
Alpha-glucosidase MAL62 [1] = target: T1, Alpha-glucosidase MAL62 (Saccharomyces cerevisiae, UniProt P07265); test: (§1) Inhibition of yeast alpha-glucosidase using p-nitrophenyl-alpha-D-glucopyranoside as substrate preincubated for 10 min before substrate addition and measured after 10 min by spectrophotometry
T1 sequence (P07265 whole entry): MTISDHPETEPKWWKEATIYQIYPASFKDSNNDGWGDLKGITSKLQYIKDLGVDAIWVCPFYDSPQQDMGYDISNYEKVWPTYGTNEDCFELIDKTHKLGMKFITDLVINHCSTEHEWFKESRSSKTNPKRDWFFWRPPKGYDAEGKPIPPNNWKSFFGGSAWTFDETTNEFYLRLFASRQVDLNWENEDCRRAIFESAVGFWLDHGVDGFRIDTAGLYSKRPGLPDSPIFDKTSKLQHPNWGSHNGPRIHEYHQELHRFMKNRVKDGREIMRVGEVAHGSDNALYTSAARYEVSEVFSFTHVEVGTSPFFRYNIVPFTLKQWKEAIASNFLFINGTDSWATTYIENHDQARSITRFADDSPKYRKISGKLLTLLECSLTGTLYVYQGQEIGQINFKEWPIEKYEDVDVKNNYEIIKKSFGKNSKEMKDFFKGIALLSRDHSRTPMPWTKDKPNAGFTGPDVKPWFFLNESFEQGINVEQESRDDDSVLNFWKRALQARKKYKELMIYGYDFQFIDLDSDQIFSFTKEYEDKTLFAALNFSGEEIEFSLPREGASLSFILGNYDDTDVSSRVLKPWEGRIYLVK

[2] = target: Alpha-glucosidase MAL62 (Saccharomyces cerevisiae) (UniProt P07265); test: Inhibition of yeast alpha-glucosidase using p-nitrophenyl-alpha-D-glucopyranoside as substrate preincubated at 300 uM for 10 min before substrate addition and measured after 10 min by spectrophotometry
Chain of Alpha-glucosidase MAL62 (Saccharomyces cerevisiae) (P07265 whole entry): as above

[3] = target: Alpha-glucosidase MAL62 (Saccharomyces cerevisiae) (UniProt P07265); test: as §1
Alpha-glucosidase MAL62 [4] = target: T1, Alpha-glucosidase MAL62; test: Uncompetitive inhibition of yeast alpha-glucosidase by Lineweaver-Burk plot analysis
[5] = target: Alpha-glucosidase MAL62 (Saccharomyces cerevisiae) (UniProt P07265); test: Competitive inhibition of yeast alpha-glucosidase by Lineweaver-Burk plot analysis
Alpha-glucosidase MAL62 [6] = target: T1, Alpha-glucosidase MAL62; test: Competitive inhibition of yeast alpha-glucosidase by Dixon plot analysis
Alpha-glucosidase MAL62 [7] = target: T1, Alpha-glucosidase MAL62; test: Mixed-type inhibition of yeast alpha-glucosidase by Lineweaver-Burk plot analysis

Compound | IC50 (Alpha-glucosidase MAL62 [1]) [µM] | inhibition [3] | further results
O=C(O)/C=C/c1ccc(O)c(O)c1 [CAFFEIC ACID] | > 300 |  | inhibition [2]: 10.2%
O=C(O)/C=C/c1ccccc1 [CINNAMIC ACID] | > 300 |  | inhibition [2]: 4.5%
O=C(O)/C=C/c1ccc(O)cc1 [COUMARIC ACID] | > 300 |  | inhibition [2]: 4.9%
OC[C@H]1NC[C@H](O)[C@@H](O)[C@@H]1O [DUVOGLUSTAT] | 278 |  | 
COc1cc(/C=C/C(=O)O)ccc1O [FERULATE] | > 300 |  | 
COc1ccc(/C=C/C(=O)NCCc2c[nH]c3ccc(O)cc23)cc1OC [N-3,4-DIMETHOXY CINNAMOYL SEROTONIN] | > 300 | Dose-dependent effect | 
O=C(/C=C/c1ccc(O)c(O)c1)NCCc1c[nH]c2ccc(O)cc12 [N-CAFFEOYLSEROTONIN] | 48.2 | Dose-dependent effect | Ki (Alpha-glucosidase MAL62 [4]): 64.4 µM
O=C(/C=C/c1ccccc1)NCCc1c[nH]c2ccc(O)cc12 [N-CINNAMOYL SEROTONIN] | 80.8 | Dose-dependent effect | inhibition [5]: Active; Ki (Alpha-glucosidase MAL62 [6]): 133 µM
O=C(CCc1ccc(O)cc1)NCCc1c[nH]c2ccc(O)cc12 [N-DIHYDRO-P-COUMAROYLSEROTONIN] | > 300 |  | 
O=C(CCc1ccc(O)c(O)c1)NCCc1c[nH]c2ccc(O)cc12 [N-DIHYDROCAFFEOYL SEROTONIN] | > 300 |  | 
O=C(CCc1ccccc1)NCCc1c[nH]c2ccc(O)cc12 [N-DIHYDROCINNAMOYL SEROTONIN] | > 300 |  | 
COc1cc(CCC(=O)NCCc2c[nH]c3ccc(O)cc23)ccc1O [N-DIHYDROFERULOYL SEROTONIN] | > 300 |  | 
COc1cc(CCC(=O)NCCc2c[nH]c3ccc(O)cc23)cc(OC)c1O [N-DIHYDROSINAPOYL SEROTONIN] | > 300 |  | 
COc1cc(/C=C/C(=O)NCCc2c[nH]c3ccc(O)cc23)ccc1O [N-FERULOYL SEROTONIN] | 99.8 | Dose-dependent effect | Ki (Alpha-glucosidase MAL62 [7]): 130 µM
COc1ccc(/C=C/C(=O)NCCc2c[nH]c3ccc(O)cc23)cc1O [N-ISOFERULOYL SEROTONIN] | > 300 | Dose-dependent effect | 
O=C(/C=C/c1ccc(O)cc1)NCCc1c[nH]c2ccc(O)cc12 [N-P-COUMAROYL SEROTONIN] | 47.2 | Dose-dependent effect | Ki (Alpha-glucosidase MAL62 [4]): 81.6 µM
COc1ccc(/C=C/C(=O)NCCc2c[nH]c3ccc(O)cc23)cc1 [N-P-METHOXY CINNAMOYL SEROTONIN] | > 300 | Dose-dependent effect | 
COc1cc(/C=C/C(=O)NCCc2c[nH]c3ccc(O)cc23)cc(OC)c1O [N-SINAPOYL SEROTONIN] | 66.2 | Dose-dependent effect | Ki (Alpha-glucosidase MAL62 [7]): 111 µM
NCCc1c[nH]c2ccc(O)cc12 [SEROTONIN] | > 300 |  | inhibition [2]: 25.6%
COc1cc(/C=C/C(=O)O)cc(OC)c1O [SINAPINATE] | 145 |  | 
